According to patent EP0089154A2, “Ethanolamine derivatives, their preparation and use in pharmaceutical compositions” (BEECHAM GROUP PLC, priority 1982, dated 1983):
Structures can show the parent of a compound that is named as a salt. Where two headings read alike, the source gives them in different places.

Legend:
Female CFLP mice = assay: Anti-hyperglycaemic activity: subcutaneous glucose load in fasted mice; type: in vivo; details: Mus musculus, po, read-out: % REDUCTION IN AREA UNDER BLOOD GLUCOSE CURVE; for inhibition in vivo at 12.5 µmol/kg: dose 12.5 μmol/kg orally
Procedure: Female CFLP mice, weighing approximately 25 g, were fasted for 24 hours prior to the study. The compounds under study were administered orally as an aqueous solution to each of 6 mice. 30 Minutes later a blood sample (10 pl) was obtained from the tail for the analysis of blood glucose. Immediately after taking this blood sample, glucose (1 g/kg body weight) was administered subcutaneously to each mouse. 6 Mice were given water as a control. Blood samples were then obtained from each mouse at 30 minute intervals for 120 minutes.
Compounds that produced a significant (P 0.05) reduction of blood glucose, compared with control mice given water, at any time interval, were considered active. The area under the blood glucose curve over the 2 hour period after the administration of the glucose was calculated for each compound and compared with the value for control animals.

Rat hearts = assay: Cardiac activity: Langendorff perfused rat heart
Procedure: Rat hearts were perfused by the Langendorff procedure. Hearts were dissected free within 30 seconds of death and reverse perfused via the aorta and coronary vessels with Krebs-Ringer bicarbonate solution (pH 7.4, 37°C) gassed with 95% oxygen:5% carbon dioxide at a flow rate between 8-12 cm^3/minute. Responses were observed after injection of drug dissolved in isotonic saline into the perfusion media.
Results are expressed as a percentage of the maximum response due to salbutamol.

rat ear = assay: Anti-inflammatory activity: croton oil induced rat ear inflammation; type: in vivo; details: 1.00 mg/rat ear, topical in 1% croton oil in tetrahydrofuran, ear weight after 6 hours
Procedure: The method used is based on that described by G.Tonelli et al (Endocrinology, 77, 625-634, 1965). An inflammation is induced in the rat ear by the application of 50 pl of a 1% solution of croton oil in tetrahydrofuran, test compounds being dissolved in the irritant vehicle. After 6 hours the inflammation is assessed by killing the animals and weighing the ears. Topical anti-inflammatory activity of a compound is generally considered to be shown when a significant (5% level) reduction in ear weight is seen compared to non- drug treated control.

[1] = mice fasted 24 hours, glucose 1 g/kg subcutaneously, 2 hour period, compared with control given water
[2] = 30 µg added to perfusate, perfused rat heart, read-out: HEART RATE
[3] = 30 µg added to perfusate, perfused rat heart, read-out: HEART TENSION
[4] = dose 2.5 μmol/kg orally, mice fasted 24 hours, glucose 1 g/kg subcutaneously, 2 hour period, compared with control given water
[5] = dose 1.0 μmol/kg orally, mice fasted 24 hours, glucose 1 g/kg subcutaneously, 2 hour period, compared with control given water

## CC(Cc1ccc(SCc2ccccc2)cc1)NCC(O)c1cccc(Cl)c1 (centres unmarked) [Example 4, N-[2-(4-Benzylthiophenyl)-1-methylethyl]-2-hydroxy-2-(3-chlorophenyl)ethanamine]
Female CFLP mice; [1]
  inhibition in vivo at 12.5 µmol/kg: 17%

## CC(Cc1ccc(S(=O)(=O)C(C)(C)C)cc1)NCC(O)c1cccc(Cl)c1 (centres unmarked) [Example 15, N-(2-(4-t-Butylsulphonylphenyl)-1-methylethyl]-2-hydroxy-2-(3-chlorophenyl)ethanamine hydrobromide]
Female CFLP mice; 2 h
  inhibition in vivo at 100 µmol/kg: 48%

## CC(Cc1ccc(S(=O)(=O)C(C)C)cc1)NCC(O)c1cccc(C(F)(F)F)c1 (centres unmarked) [Example 8, N-[2-(4-Isopropylsulphonylphenyl)-1-methylethyl]-2-hydroxy-2-(3-trifluoromethylphenyl)ethanamine]
Rat hearts; [2]
  Emax at 30 µg: 29%
Rat hearts; [3]
  Emax at 30 µg: 30%

## COCCSc1ccc(CC(C)NCC(O)c2cccc(Cl)c2)cc1 (centres unmarked) [Example 21, N-[2-(4-(2-Methoxyethylthio)phenyl)-1-methylethyl]-2-hydroxy-2-(3-chlorophenyl)ethanamine hydrochloride]
Female CFLP mice; 2 h
  inhibition in vivo at 1 µmol/kg: 31%

## CC(Cc1ccc(SC(C)C)cc1)NCC(O)c1cccc(Cl)c1 (centres unmarked) [Example 3, N-[2-(4-Isopropylthiophenyl)-1-methylethyl]-2-hydroxy-2-(3-chlorophenyl)ethanamine hydrochloride]
Female CFLP mice; 2 h
  inhibition in vivo at 0.5 µmol/kg: 28%

## CC(Cc1ccc(SCCSc2ccccc2)cc1)NCC(O)c1cccc(Cl)c1 (centres unmarked) [Example 24, N-[2-(4-(2-Phenylthioethylthio)phenyl)-1-methylethyl]-2-hydroxy-2-(3-chlorophenyl)ethanamine]
Female CFLP mice; [4]
  inhibition in vivo at 2.5 µmol/kg: 12%

## CC(Cc1ccc(SCCOc2ccccc2)cc1)NCC(O)c1cccc(Cl)c1 (centres unmarked) [Example 22, N-[2-(4-(2-Phenoxyethylthio)phenyl)-1-methyletlzyl]-2-hydroxy-2-(3-chlorophenyl) ethanamine]
Female CFLP mice; [4]
  inhibition in vivo at 2.5 µmol/kg: 23%

## CC(Cc1ccc(CS(=O)(=O)C(C)C)cc1)NCC(O)c1cccc(C(F)(F)F)c1 (centres unmarked) [Example 12, N-[2-(4-Isopropylsulphonylmethylphenyl)-1-methylethyl] -2-hydroxy-2-(3-trifluoromethylphenyl)ethanamine]
Rat hearts; [2]
  Emax at 30 µg: 13%
Rat hearts; [3]
  Emax at 30 µg: 40%

## CNCCSc1ccc(CC(C)NCC(O)c2cccc(Cl)c2)cc1 (centres unmarked) [Example 23, N-[2-(4-(2-Methylaminoethylthio)phenyl)-1-methlethyl]-2-hydrox-2-(3-chlorophenyl)ethanamine dihydrochloride]
Female CFLP mice; [5]
  inhibition in vivo at 1 µmol/kg: 16%

## CSc1ccc(C[C@@H](C)NC[C@H](O)c2cccc(Cl)c2)cc1 [Example 19, (RR, SS)-N-[2-(4-Methylthiophenyl)-1-methylethyl]-2-luydroxy-1-(3-chlorophenyl) ethanamine hydrochloride]
Female CFLP mice; 2 h
  inhibition in vivo at 2.5 µmol/kg: 26%

## CSc1ccc(CC(C)NCC(O)c2cccc(Cl)c2)cc1 (centres unmarked) [Example 2, N-[2-(4-Methylthiophenyl)-1-methylethyl]-2-hydroxy-2-(3-chlorophenyl)ethanamine]
Female CFLP mice; 2 h
  inhibition in vivo at 1 µmol/kg: 8%
Rat hearts; Rattus norvegicus, read-out: HEART RATE
  Emax at 30 µg: 23%
Rat hearts; Rattus norvegicus, read-out: HEART TENSION
  Emax at 30 µg: 25%

## CC(Cc1ccc([S+](C)[O-])cc1)NCC(O)c1cccc(Cl)c1 (centres unmarked) [Example 20, N-[2-(4-Methylsulphinylphenyl)-1-methylethyl]-2-hydroxy-2-(3-chlorophenyl) ethanamine]
Female CFLP mice; [1]
  inhibition in vivo at 12.5 µmol/kg: 59%

## COC(=O)CCS(=O)(=O)c1ccc(CC(C)NCC(O)c2cccc(Cl)c2)cc1 (centres unmarked) [Example 10, N-[2-(4-{2-Carbomethoxyethylsulphonyl}phenyl)-1-methylethyl] -2-hydroxy-2-(3-chlorophenyl)ethanamine]
Female CFLP mice; [5]
  inhibition in vivo at 1 µmol/kg: 10%
Rat hearts; [2]
  Emax at 30 µg: 31%
Rat hearts; [3]
  Emax at 30 µg: 91%

## CC(Cc1ccc(S(=O)(=O)CCCO)cc1)NCC(O)c1cccc(C(F)(F)F)c1 (centres unmarked) [Example 9, N-[2-(4-{3-Hyaroxypropylsulphonyl}phenyl)-1-methylethyl] -2-hydroxy-2-(3-trifluoromethylphenyl)-ethanamine]
Female CFLP mice; [1]
  inhibition in vivo at 12.5 µmol/kg: 52%

## CC(Cc1ccc(SC(C)C)cc1)NCC(O)c1ccccc1 (centres unmarked) [Example 17, N-[2-(4-Isopropylthiophenyl)-1-methylethyl]-2-hydroxy-2-phenylethanamine]
Female CFLP mice; 2 h
  inhibition in vivo at 2.5 µmol/kg: 30%

## CC(Cc1ccc(S(C)(=O)=O)cc1)NCC(O)c1cccc(C(F)(F)F)c1 (centres unmarked) [Example 7, N-[2-(4-Methylsulphonylphenyl)-1-methylethyl]-2-hydroxy-2-(3-trifluoromethylphenyl)ethanamine]
Female CFLP mice; [1]
  inhibition in vivo at 12.5 µmol/kg: 48%
Rat hearts; [2]
  Emax at 30 µg: 25%
Rat hearts; [3]
  Emax at 30 µg: 0%

## CSc1ccc(C[C@H](C)NC[C@H](O)c2cccc(Cl)c2)cc1 [Example 18]
Female CFLP mice; 2 h
  inhibition in vivo at 5 µmol/kg: 16%

## CC(Cc1ccc(CS(C)(=O)=O)cc1)NCC(O)c1cccc(C(F)(F)F)c1 (stereo not drawn) [Example 11, N-[2-(4-Methylsulphonylmethylphenyl)-l-methylethyl] -2-hydroxy-2-(3-trifluoromethylphenyl)ethanamine]
Rat hearts; [2]
  Emax at 30 µg: 67%
Rat hearts; [3]
  Emax at 30 µg: 18%

## COC(=O)CCSc1ccc(CC(C)NCC(O)c2cccc(C(F)(F)F)c2)cc1 (centres unmarked) [Example 1, N-[2-(4-(2-Carbomethoxyethylthio)phenyl)-1-methylethyl] 2-hydroxy-2-(3-trifluoromethylphenyl)ethanamine]
Female CFLP mice; [1]
  inhibition in vivo at 12.5 µmol/kg: 35%
Rat hearts; [2]
  Emax at 30 µg: 0%
Rat hearts; [3]
  Emax at 30 µg: 4%
Rat ear
  inhibition: 89%
Rat ear; active = significant (5% level) reduction in ear weight
  Activity: Active
